Type in all cases: biochemical
One assay deals with Human Tyk2 kinase domain (Homo sapiens (Human), UniProt P29597). Kind of assay: Tyk2 Inhibition Assay (Example A, Omnia kinase fluorescence peptide substrate assay). The note with it: TYK2 Enzyme IC50 1 mM ATP, averaged IC50 ranges. The text has this:
(§1) The assays described in Examples A, B, C and D for the determination of Tyk2, JAK1, JAK2 and JAK3 kinase activity, respectively, utilized the Omnia® Kinase fluorescence peptide substrate-based technology (Invitrogen). The specific components of the assay mixture are described in Examples A, B, C and D. In these assays, Mg^2+ is chelated upon phosphorylation of the Omnia peptide by the kinase to form a bridge between the chelation-enhanced fluorophore Sox and the phosphate, resulting in an increase in fluorescence emission at 485 nm when excited at […]. The reactions were therefore read at excitation 360 nm and emission was measured at 485 nm every 50 seconds for 45 minutes using a PerkinElmer EnVision Multilabel Plate Reader.
(§2) The final buffer conditions for Tyk2, JAK1, JAK2, and JAK3 assays were as follows: 25 mM HEPES, pH 7.4, 10 mM MgCl2, 0.01% Triton X-100 and 1 mM DTT.
(§3) Two-μL aliquots of these were transferred to a fresh plate for a ten-fold intermediate dilution with assay buffer. Five-μL aliquots of the diluted compounds were then transferred to 20-μL of assay mixtures described in Examples A, B, C and D for a final concentration of DMSO of 2%. […] For each plate, percent of control (POC) values were calculated for each well according to the following equation: […]
(§4) IC50's were estimated from the POC's using a standard 4-parameter logistic model:
(§5) The IC50 is defined as the concentration of inhibitor at which the POC equals 50 for the fitted curve.
Compounds of Formula I were screened for their ability to inhibit Tyk2 using the general enzyme inhibition assay method, in which the assay mixture contained 1 mM ATP, 8 μM Omnia Y12 peptide (Catalog # IVGN KPZ3121C; Invitrogen Corporation, Carlsbad, Calif.) and 1 nM Tyk2 in a total volume of 25 μL. Human Tyk2 kinase domain, comprising amino acids 886 to 1187 with 10 additional histidine residues (histidine tag) on the carboxy terminus, was expressed and purified from bacculovirus in-house at Array BioPharma Inc. (Boulder, Colo.). The histidine tag was cleaved after purification using standard conditions.

The next assay addresses JAK3 (Homo sapiens (Human), UniProt P52333). Kind of assay: JAK3 Inhibition Assay (Example D, Omnia kinase fluorescence peptide substrate assay).
Source text: as §1, §2, §3, §4, §5
Compounds of Formula I were screened for their ability to inhibit JAK3 using the general enzyme inhibition assay method, in which the assay mixture contained 1 mM ATP, 10 μM Omnia® Y7 peptide (Catalog # IVGN KNZ3071C, Invitrogen Corporation, Carlsbad, Calif.) and 2 nM JAK3 in a total volume of 25 μL. JAK3 was purchased from Invitrogen Corporation, Carlsbad, Calif. (catalog # IVGN PV4080).

The next assay addresses JAK2 (Homo sapiens (Human), UniProt O60674). The assay can be described thus: JAK2 Inhibition Assay (Example C, Omnia kinase fluorescence peptide substrate assay). The settings on record: JAK2 Enzyme IC50 1 mM ATP, averaged IC50 ranges.
Source text: as §1, §2, §3, §4, §5
Compounds of Formula I were screened for their ability to inhibit JAK2 using the general enzyme inhibition assay method, in which the assay mixture contained 1 mM ATP, 10 μM Omnia® Y7 peptide (Catalog # IVGN KNZ3071C, Invitrogen Corporation, Carlsbad, Calif.) and 4 nM JAK2 in a total volume of 25 μL. JAK2 was purchased from Invitrogen Corporation, Carlsbad, Calif. (catalog # IVGN PV4288).

A further assay addresses JAK1 (Homo sapiens (Human), UniProt P23458). The assay can be described thus: JAK1 Inhibition Assay (Example B, Omnia kinase fluorescence peptide substrate assay).
Source text: as §1, §2, §3, §4, §5
Compounds of Formula I were screened for their ability to inhibit JAK1 using the general enzyme inhibition assay method, in which the assay mixture contained 1 mM ATP, 8 μM Omnia® Y12 peptide (Catalog # IVGN KPZ3121C; Invitrogen Corporation, Carlsbad, Calif.) and 12.5 nM JAK1 in a total volume of 25 μL. JAK1 was purchased from Invitrogen Corporation, Carlsbad, Calif. (catalog # IVGN PV4775).

Setting [1] is: JAK1 Enzyme IC50 1 mM ATP, 1 mM ATP, averaged IC50 ranges.

pIC50: −log10 of the molar value. Like-named read-outs stand apart in the source and are kept apart here.

JAK3, sequence (P52333 whole entry): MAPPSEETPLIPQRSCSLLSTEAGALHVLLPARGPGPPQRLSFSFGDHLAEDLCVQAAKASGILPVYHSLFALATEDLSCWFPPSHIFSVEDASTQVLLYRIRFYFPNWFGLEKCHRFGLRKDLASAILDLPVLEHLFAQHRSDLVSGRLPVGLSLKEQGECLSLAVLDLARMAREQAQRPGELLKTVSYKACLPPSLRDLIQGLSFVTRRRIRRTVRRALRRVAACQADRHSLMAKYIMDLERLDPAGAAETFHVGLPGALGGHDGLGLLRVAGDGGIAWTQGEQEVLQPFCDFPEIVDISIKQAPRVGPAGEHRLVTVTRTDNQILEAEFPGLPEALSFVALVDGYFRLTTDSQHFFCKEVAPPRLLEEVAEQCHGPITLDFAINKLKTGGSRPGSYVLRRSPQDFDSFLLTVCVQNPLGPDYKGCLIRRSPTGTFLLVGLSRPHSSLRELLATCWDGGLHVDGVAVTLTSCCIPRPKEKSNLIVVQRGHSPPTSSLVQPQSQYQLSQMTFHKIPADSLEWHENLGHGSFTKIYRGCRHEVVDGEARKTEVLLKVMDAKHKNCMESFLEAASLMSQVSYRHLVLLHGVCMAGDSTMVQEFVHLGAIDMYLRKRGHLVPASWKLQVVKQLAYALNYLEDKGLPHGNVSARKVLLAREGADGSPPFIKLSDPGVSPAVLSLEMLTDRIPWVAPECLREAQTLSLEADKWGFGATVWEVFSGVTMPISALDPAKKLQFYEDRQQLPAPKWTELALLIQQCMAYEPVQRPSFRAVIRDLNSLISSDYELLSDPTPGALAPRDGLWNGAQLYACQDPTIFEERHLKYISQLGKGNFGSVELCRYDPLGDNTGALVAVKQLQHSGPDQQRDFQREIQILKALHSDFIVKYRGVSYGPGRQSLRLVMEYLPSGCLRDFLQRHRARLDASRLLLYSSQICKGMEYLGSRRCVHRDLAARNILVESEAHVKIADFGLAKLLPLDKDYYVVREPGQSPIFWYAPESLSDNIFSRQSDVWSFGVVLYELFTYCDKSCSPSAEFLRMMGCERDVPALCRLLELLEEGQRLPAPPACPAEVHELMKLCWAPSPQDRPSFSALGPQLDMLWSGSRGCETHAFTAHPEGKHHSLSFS
JAK2, sequence (O60674 whole entry): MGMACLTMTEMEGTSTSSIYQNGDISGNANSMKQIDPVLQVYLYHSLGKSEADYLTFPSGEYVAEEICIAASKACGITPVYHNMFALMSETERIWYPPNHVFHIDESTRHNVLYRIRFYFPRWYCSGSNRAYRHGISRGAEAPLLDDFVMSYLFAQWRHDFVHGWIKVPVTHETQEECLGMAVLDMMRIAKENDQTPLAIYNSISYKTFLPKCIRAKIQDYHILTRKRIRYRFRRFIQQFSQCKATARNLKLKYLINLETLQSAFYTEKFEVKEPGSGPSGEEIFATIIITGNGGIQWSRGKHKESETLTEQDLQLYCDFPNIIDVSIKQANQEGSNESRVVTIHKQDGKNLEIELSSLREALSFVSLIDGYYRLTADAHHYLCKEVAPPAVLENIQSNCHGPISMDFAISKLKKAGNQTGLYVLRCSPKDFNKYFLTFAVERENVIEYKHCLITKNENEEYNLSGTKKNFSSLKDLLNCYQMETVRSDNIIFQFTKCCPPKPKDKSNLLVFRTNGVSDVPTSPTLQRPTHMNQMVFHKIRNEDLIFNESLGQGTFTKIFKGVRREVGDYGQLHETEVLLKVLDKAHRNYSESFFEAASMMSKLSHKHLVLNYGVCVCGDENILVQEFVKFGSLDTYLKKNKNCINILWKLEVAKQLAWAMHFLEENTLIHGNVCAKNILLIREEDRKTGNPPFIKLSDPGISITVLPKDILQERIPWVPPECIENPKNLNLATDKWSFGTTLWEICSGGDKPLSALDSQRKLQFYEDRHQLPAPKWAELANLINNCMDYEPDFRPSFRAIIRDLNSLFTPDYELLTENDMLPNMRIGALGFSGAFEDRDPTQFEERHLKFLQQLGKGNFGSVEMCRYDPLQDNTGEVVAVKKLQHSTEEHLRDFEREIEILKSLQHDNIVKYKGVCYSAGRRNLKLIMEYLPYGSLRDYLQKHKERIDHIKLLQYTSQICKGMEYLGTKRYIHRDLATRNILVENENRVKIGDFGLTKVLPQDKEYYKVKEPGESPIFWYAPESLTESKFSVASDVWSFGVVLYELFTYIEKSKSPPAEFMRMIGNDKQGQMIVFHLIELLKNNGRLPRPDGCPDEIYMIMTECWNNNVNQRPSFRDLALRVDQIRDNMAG
Human Tyk2 kinase domain, sequence (P29597 886-1187): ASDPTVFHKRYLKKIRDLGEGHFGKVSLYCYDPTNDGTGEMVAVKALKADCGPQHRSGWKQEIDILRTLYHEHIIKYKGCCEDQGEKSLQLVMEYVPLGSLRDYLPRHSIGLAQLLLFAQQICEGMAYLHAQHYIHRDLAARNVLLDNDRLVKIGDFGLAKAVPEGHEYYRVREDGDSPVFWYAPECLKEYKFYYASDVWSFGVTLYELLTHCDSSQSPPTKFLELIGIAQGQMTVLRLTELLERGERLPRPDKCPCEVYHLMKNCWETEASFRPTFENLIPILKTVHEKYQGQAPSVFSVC
JAK1, sequence (P23458 whole entry): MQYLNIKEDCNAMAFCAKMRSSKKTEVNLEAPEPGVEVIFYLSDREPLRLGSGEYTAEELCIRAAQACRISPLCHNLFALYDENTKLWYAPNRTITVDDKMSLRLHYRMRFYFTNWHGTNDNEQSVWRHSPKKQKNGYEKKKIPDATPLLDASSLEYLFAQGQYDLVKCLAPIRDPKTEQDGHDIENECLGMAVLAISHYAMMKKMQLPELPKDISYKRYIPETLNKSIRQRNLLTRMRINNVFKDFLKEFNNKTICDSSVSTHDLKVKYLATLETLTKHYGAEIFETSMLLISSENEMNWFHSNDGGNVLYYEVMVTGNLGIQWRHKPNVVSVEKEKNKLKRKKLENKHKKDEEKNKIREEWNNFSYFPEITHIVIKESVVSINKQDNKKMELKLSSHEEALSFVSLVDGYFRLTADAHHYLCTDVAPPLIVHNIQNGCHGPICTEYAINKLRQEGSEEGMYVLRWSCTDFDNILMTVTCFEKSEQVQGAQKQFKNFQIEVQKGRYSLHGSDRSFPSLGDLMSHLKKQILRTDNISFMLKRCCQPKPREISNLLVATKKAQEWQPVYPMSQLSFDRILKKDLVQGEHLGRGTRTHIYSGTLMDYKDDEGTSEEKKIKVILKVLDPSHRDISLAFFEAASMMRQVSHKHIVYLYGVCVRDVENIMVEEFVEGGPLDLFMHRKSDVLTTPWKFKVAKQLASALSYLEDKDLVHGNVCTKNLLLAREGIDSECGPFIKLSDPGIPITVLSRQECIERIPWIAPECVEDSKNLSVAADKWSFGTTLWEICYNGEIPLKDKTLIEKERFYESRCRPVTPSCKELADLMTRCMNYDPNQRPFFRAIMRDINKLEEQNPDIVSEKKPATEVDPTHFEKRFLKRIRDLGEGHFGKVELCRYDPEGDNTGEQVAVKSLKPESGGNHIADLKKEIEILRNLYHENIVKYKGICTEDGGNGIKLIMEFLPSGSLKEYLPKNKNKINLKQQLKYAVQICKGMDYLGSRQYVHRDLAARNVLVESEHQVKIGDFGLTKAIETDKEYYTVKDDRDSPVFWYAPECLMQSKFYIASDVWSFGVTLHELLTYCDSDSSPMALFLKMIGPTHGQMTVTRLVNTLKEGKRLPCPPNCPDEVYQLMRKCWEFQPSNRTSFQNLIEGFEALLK

By pIC50 is commonly meant the IC50 on a negative log10 scale, so that one unit is a factor of ten. A low value points to a high IC50. For `CCC(CC)n1cc(-c2nc(-c3cnn([C@@H](C)[C@H](C)O)c3)cn3nccc23)cn1` (single isomer, unassigned) [Example 155], the pIC50 against Human Tyk2 kinase domain is 7.00 to 8.00; at JAK3, 5.00 to 6.00; at JAK2, 7.00 to 8.00; at JAK1 (setting [1]), 6.00 to 7.00.

Consider `CCC(CC)n1cc(-c2nc(-c3cnn([C@H](C)[C@@H](C)O)c3)cn3nccc23)cn1` (single isomer, unassigned) [Example 156], for which the pIC50 was 7.00 to 8.00 on Human Tyk2 kinase domain, 5.00 to 6.00 on JAK3, 7.00 to 8.00 against JAK2 and 6.00 to 7.00 against JAK1 (setting [1]).

Regarding `CCC(CC)n1cc(-c2nc(-c3cnn([C@@H](C)[C@@H](C)O)c3)cn3nccc23)cn1` (single isomer, unassigned) [Example 157], the pIC50 against Human Tyk2 kinase domain was 7.00 to 8.00; against JAK3 it was 5.00 to 6.00; on JAK2, 7.00 to 8.00; against JAK1 (setting [1]), 6.00 to 7.00.

In the case of `CCC(CC)n1cc(-c2nc(-c3cnn([C@H](C)[C@H](C)O)c3)cn3nccc23)cn1` (single isomer, unassigned) [Example 158], the pIC50 against Human Tyk2 kinase domain was 7.00 to 8.00; on JAK3, 5.00 to 6.00; against JAK2, 7.00 to 8.00; on JAK1 (setting [1]), 7.00 to 8.00.

On to `CC[C@H](C1CCC1)n1cc(-c2nc(-c3cnn(C[C@@H](O)CO)c3)cn3nccc23)cn1` (single isomer, unassigned) [Example 196], for which the pIC50 against Human Tyk2 kinase domain is 6.00 to 7.00; against JAK3, 5.00 to 6.00; on JAK2, 6.00 to 7.00; on JAK1 (setting [1]), 5.00 to 6.00.

Turning to `CC[C@@H](C1CCC1)n1cc(-c2nc(-c3cnn(C[C@@H](O)CO)c3)cn3nccc23)cn1` (single isomer, unassigned) [Example 197], the pIC50 at Human Tyk2 kinase domain was 7.00 to 8.00; against JAK3, 5.00 to 6.00; at JAK2, 7.00 to 8.00; against JAK1 (setting [1]) it was 6.00 to 7.00.

As for `CC[C@@H](n1cc(-c2nc(-c3cnn(C[C@@H](O)CO)c3)cn3nccc23)cn1)C(C)(F)F` (single isomer, unassigned) [Example 199], the pIC50 against Human Tyk2 kinase domain is 6.00 to 7.00; against JAK3, 5.00 to 6.00; against JAK2, 6.00 to 7.00; at JAK1 (setting [1]) it was 5.00 to 6.00.

Consider `CCC(CC)n1cc(-c2nc(-c3cnn(C[C@@H](O)CCO)c3)cn3nccc23)cn1` (single isomer, unassigned) [Example 200], for which the pIC50 at Human Tyk2 kinase domain is 7.00 to 8.00; against JAK3, 5.00 to 6.00; at JAK2, 7.00 to 8.00; on JAK1, 6.00 to 7.00.

For `CCC(CC)n1cc(-c2nc(-c3cnn(C[C@@](C)(O)CO)c3)cn3nccc23)cn1` (single isomer, unassigned) [Example 202], the pIC50 against Human Tyk2 kinase domain was 7.00 to 8.00; against JAK3 it was 5.00 to 6.00; against JAK2, 7.00 to 8.00; at JAK1, 6.00 to 7.00.

As to `CCC(CC)n1cc(-c2nc(-c3cnn(C[C@](C)(O)CO)c3)cn3nccc23)cn1` (single isomer, unassigned) [Example 203], the pIC50 is 7.00 to 8.00 against Human Tyk2 kinase domain, 5.00 to 6.00 against JAK3, 7.00 to 8.00 against JAK2 and 6.00 to 7.00 against JAK1.

`CC[C@@H]1CCC[C@@H]1n1cc(-c2nc(-c3cnn(C[C@@H](O)CO)c3)cn3nccc23)cn1` (single isomer, unassigned) [Example 207]: the pIC50 on Human Tyk2 kinase domain was 7.00 to 8.00; against JAK3, 6.00 to 7.00; on JAK2, over 8.00; at JAK1 (setting [1]), 6.00 to 7.00.

Turning to `CC[C@H]1CCC[C@H]1n1cc(-c2nc(-c3cnn(C[C@@H](O)CO)c3)cn3nccc23)cn1` (single isomer, unassigned) [Example 208], the pIC50 against Human Tyk2 kinase domain was 6.00 to 7.00; against JAK3, 5.00 to 6.00; at JAK2 it was 7.00 to 8.00; on JAK1 (setting [1]), 5.00 to 6.00.

Turning to `CCC(CC(F)(F)F)n1cc(-c2nc(-c3cnn(C(CO)CO)c3)cn3nccc23)cn1` (single isomer, unassigned) [Example 212], the pIC50 at Human Tyk2 kinase domain was 6.00 to 7.00; against JAK3, 5.00 to 6.00; against JAK2, 6.00 to 7.00; against JAK1, 5.00 to 6.00.

`CCC(CC)n1cc(-c2nc(-c3cnn([C@H]4CCC[C@H]4O)c3)cn3nccc23)cn1` (single isomer, unassigned) [compound 190]: the pIC50 is 6.00 to 7.00 against Human Tyk2 kinase domain, 5.00 to 6.00 on JAK3, 6.00 to 7.00 on JAK2 and 5.00 to 6.00 on JAK1 (setting [1]).

`CCC(CC)n1cc(-c2nc(-c3cnn(C[C@H](O)CCO)c3)cn3nccc23)cn1` (single isomer, unassigned) [compound 201]: the pIC50 against Human Tyk2 kinase domain was 7.00 to 8.00; at JAK3, 5.00 to 6.00; at JAK2 it was 7.00 to 8.00; against JAK1 it was 5.00 to 6.00.

Regarding `CCOC(C)n1cc(-c2nc(-c3cnn(C)c3)cn3nccc23)cn1` (stereo not shown) [Example 1, 4-(1-(1-ethoxyethyl)-1H-pyrazol-4-yl)-6-(1-methyl-1H-pyrazol-4-yl)pyrazolo[1,5-a]pyrazine], the pIC50 at Human Tyk2 kinase domain, against JAK3, at JAK2 and against JAK1 was 5.00 to 6.00 each time.

As to `Cn1cc(-c2cn3nccc3c(-c3cnn(C4CCCCCC4)c3)n2)cn1` [Example 2, 4-(1-cycloheptyl-1H-pyrazol-4-yl)-6-(1-methyl-1H-pyrazol-4-yl)pyrazolo[1,5-a]pyrazine], the pIC50 on Human Tyk2 kinase domain was 6.00 to 7.00; against JAK3 it was 5.00 to 6.00; against JAK2 it was 6.00 to 7.00; on JAK1, 5.00 to 6.00.

For the compound `CCC(CC)n1cc(-c2nc(-c3cnn(CCN4CCOCC4)c3)cn3nccc23)cn1` [Example 3, 4-(2-(4-(4-(1-(pentan-3-yl)-1H-pyrazol-4-yl)pyrazolo[1,5-a]pyrazin-6-yl)-1H-pyrazol-1-yl)ethyl)morpholine], the pIC50 is 7.00 to 8.00 on Human Tyk2 kinase domain, 5.00 to 6.00 at JAK3, 7.00 to 8.00 against JAK2 and 5.00 to 6.00 on JAK1.

`CCC(CC)n1cc(-c2nc(-c3cnn(CC4CCOCC4)c3)cn3nccc23)cn1` [Example 4, 4-(1-(pentan-3-yl)-1H-pyrazol-4-yl)-6-(1-((tetrahydro-2H-pyran-4-yl)methyl)-1H-pyrazol-4-yl)pyrazolo[1,5-a]pyrazine]: the pIC50 against Human Tyk2 kinase domain is 7.00 to 8.00; against JAK3, 5.00 to 6.00; on JAK2, 7.00 to 8.00; on JAK1, 6.00 to 7.00.

As for `CCC(CC)n1cc(-c2nc(-c3cnn(CC(=O)N(C)C)c3)cn3nccc23)cn1` [Example 5, N,N-dimethyl-2-(4-(4-(1-(pentan-3-yl)-1H-pyrazol-4-yl)pyrazolo[1,5-a]pyrazin-6-yl)-1H-pyrazol-1-yl)acetamide], the pIC50 was 7.00 to 8.00 at Human Tyk2 kinase domain, 5.00 to 6.00 against JAK3, 6.00 to 7.00 against JAK2 and 6.00 to 7.00 on JAK1.

Turning to `CCC(CC)n1cc(-c2nc(-c3cnn(CC(=O)N4CCOCC4)c3)cn3nccc23)cn1` [Example 6, 1-morpholino-2-(4-(4-(1-(pentan-3-yl)-1H-pyrazol-4-yl)pyrazolo[1,5-a]pyrazin-6-yl)-1H-pyrazol-1-yl)ethanone], the pIC50 at Human Tyk2 kinase domain is 7.00 to 8.00; on JAK3, 5.00 to 6.00; on JAK2, 7.00 to 8.00; against JAK1, 7.00 to 8.00.

Turning to `CCC(CC)n1cc(-c2nc(-c3cnn(CCCS(C)(=O)=O)c3)cn3nccc23)cn1` [Example 7, 6-(1-(3-(methylsulfonyl)propyl)-1H-pyrazol-4-yl)-4-(l-(pentan-3-yl)-1H-pyrazol-4-yl)pyrazolo[1,5-a]pyrazine], the pIC50 at Human Tyk2 kinase domain is 7.00 to 8.00; against JAK3, 5.00 to 6.00; against JAK2, 7.00 to 8.00; against JAK1 it was 5.00 to 6.00.

(Values after patent US10189845B2, “4,6-substituted-pyrazolo[1,5-a]pyrazines as janus kinase inhibitors” (ARRAY BIOPHARMA INC., priority 2014, dated 2019).)
